According to US7915293B2, “Ubiquitin ligase inhibitors” (Rigel Pharmaceuticals, Inc., priority 2003, dated 2011):

Biological target: E3 (His-APC11/APC2-"APC") (Homo sapiens, UniProt Q9NYG5+Q9UJX6)
Experiment: Plate-based E3 ligase assay (APC FLAG), auto-ubiquitination
Assay type: biochemical
Parameters: key: “+” indicates that the compound exibits inhibitory activity; “−” indicates that low or no inhibitory activity was observed
Details: for APC Flag 8 pt: 8 concentrations tested; for APC Flag (2 pt): 2 concentrations tested
Method: E3 (His-APC11/APC2-“APC”) auto-ubiquitination was measured as described in U.S. patent application Ser. No. 09/826,312 (Publication No. US-2002-0042083-A1), which is incorporated herein in its entirety. Details of the protocol are described below. Activity in the presence of the compound was determined relative to a parallel control in which only DMSO was added. Values of the IC50 were typically determined using 6 or 8 different concentrations of the compound, although as few as 2 concentrations may be used to approximate the IC50 value.
Nickel-coated 96-well plates (Pierce 15242) were blocked for 1 hour with 100 μl of blocking buffer at room temperature. The plates were washed 4 times with 225 μl of 1×PBS and 80 μl of the reaction buffer were added that contained 100 ng/well of Flag-ubiquitin. To this, 10 μl of the test compound diluted in DMSO were added. After the test compound was added, 10 μl of E1 (human), E2 (Ubch5c), and APC in Protein Buffer was added to obtain a final concentration of 5 ng/well of E1, 20 ng/well of E2 and 100 ng/well of APC. The plate were shaken for 10 minutes and incubated at room temperature for 1 hour. After incubation, the plates were washed 4 times with 225 μl of 1×PBS and 100 μl/well of Antibody Mix were added to each well. The plates were incubate at room temperature for another hour after which they were washed 4 times with 225 μl of 1×PBS and 100 μl/well of Lumino substrate were added to each well. The luminescence was measured by using a BMG luminescence microplate reader.
To prepare the Blocking Buffer (1 liter; 1% Casein in 1×PBS), 10 grams of Casein (Hammersten Grade Casein from Gallard-Schlesinger Inc. #440203) were placed into 1 liter of 1×PBS, stirred on a hot plate and kept between 50-60° C. for an hour. The buffer was allowed to cool to room temperature and then filtered using a Buchner Funnel (Buchner filter funnel 83 mm 30310-109) and Whatman filter paper (Whatman Grade No. 1 Filter paper 28450-070). It was stored at 4° C. until used.
The reaction buffer consisted of 62.5 mM Tris pH 7.6 (Trizma Base—Sigma T-8524), 3 mM MgCl2 (Magnesium Chloride—Sigma M-2393), 1 mM DTT (Sigma D-9779), 2.5 mM ATP (Roche Boehringer Mann Corp. 635-316), 100 ng/well of Flag-ubiquitin, 0.1% BSA (Sigma A-7906), and 0.05% Tween-20 (Sigma P-7949).
The Protein Buffer consisted of 20 mM Tris pH 7.6, 10% glycerol (Sigma G-5516) and 1 mM DTT.
The antibody mix consisted of 0.25% BSA (Sigma A-7906) in 1×PBS, 1/50,000 anti-Flag (Sigma F-3165), 1/100,000 of anti-Mouse IgG-HRP (Jackson Immunoresearch #115-035-146).
The substrate mix consisted of SuperSignal Substrate from Pierce (catalog number 37070ZZ) and was prepared by mixing 100 ml of the peroxide solution, 100 ml of the enhancer solution and 100 ml of Milli-Q® water.

Sequence of E3 (His-APC11/APC2-"APC") (Q9NYG5 whole entry): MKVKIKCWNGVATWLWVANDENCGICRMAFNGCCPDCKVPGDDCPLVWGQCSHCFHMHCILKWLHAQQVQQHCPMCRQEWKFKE
Sequence of E3 (His-APC11/APC2-"APC") (Q9UJX6 whole entry): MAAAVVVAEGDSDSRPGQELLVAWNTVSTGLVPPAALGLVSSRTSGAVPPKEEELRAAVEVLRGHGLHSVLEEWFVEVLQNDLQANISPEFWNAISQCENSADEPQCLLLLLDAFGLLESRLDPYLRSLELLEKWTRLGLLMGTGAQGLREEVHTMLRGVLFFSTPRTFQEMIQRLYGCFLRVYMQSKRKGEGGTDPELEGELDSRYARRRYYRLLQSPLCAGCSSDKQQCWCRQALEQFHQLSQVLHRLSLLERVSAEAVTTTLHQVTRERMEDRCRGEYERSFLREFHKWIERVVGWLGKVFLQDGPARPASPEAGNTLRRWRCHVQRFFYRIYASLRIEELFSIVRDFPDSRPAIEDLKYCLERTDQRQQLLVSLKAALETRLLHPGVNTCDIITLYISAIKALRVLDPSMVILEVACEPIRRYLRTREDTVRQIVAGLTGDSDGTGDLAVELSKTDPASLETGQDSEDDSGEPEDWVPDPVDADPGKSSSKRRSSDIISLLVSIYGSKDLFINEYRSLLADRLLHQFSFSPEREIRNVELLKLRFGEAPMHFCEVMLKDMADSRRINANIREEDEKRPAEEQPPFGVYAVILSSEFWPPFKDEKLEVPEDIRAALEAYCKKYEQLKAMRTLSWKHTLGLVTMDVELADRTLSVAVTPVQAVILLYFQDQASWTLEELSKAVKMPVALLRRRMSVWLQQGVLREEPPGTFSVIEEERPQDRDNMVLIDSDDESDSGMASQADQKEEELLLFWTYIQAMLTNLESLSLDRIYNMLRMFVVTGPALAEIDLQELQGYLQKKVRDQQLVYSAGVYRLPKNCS

SMILES	APC Flag 8 pt	APC Flag (2 pt)
N#Cc1ccc(N(S(=O)(=O)c2cc(Cl)c(Oc3ccc([N+](=O)[O-])cc3Cl)c(Cl)c2)S(=O)(=O)c2cc(Cl)c(Oc3ccc([N+](=O)[O-])cc3Cl)c(Cl)c2)cc1 [Example 136, 3,5-dichloro-4-(2-chloro-4-nitrophenoxy)-N-(4-cyanophenyl)-N-(1,3-dichloro-2-(2-chloro-4-nitrophenoxy)-5-sulfonylbenzene)-benzenesulfonamide]	+	
Cc1ccc(N(S(=O)(=O)c2cc(Cl)c(Oc3ccc([N+](=O)[O-])cc3Cl)c(Cl)c2)S(=O)(=O)c2cc(Cl)c(Oc3ccc([N+](=O)[O-])cc3Cl)c(Cl)c2)cc1 [Example 137, 3,5-dichloro-4-(2-chloro-4-nitrophenoxy)-N-(4-methylphenyl)-N-(1,3-dichloro-2-(2-chloro-4-nitrophenoxy)-5-sulfonylbenzene) benzenesulfonamide]	+	
O=[N+]([O-])c1ccc(N(S(=O)(=O)c2cc(Cl)c(Oc3ccc([N+](=O)[O-])cc3Cl)c(Cl)c2)S(=O)(=O)c2cc(Cl)c(Oc3ccc([N+](=O)[O-])cc3Cl)c(Cl)c2)cc1 [Example 138, 3,5-dichloro-4-(2-chloro-4-nitrophenoxy)-N-(1,3-dichloro-2-(2-chloro-4-nitrophenoxy)-5-sulfonylbenzene)-N-(4-nitrophenyl) benzenesulfonamide]	+	
N=C(N)NCCC[C@H](NS(=O)(=O)c1cc(Cl)c(Oc2ccc([N+](=O)[O-])cc2Cl)c(Cl)c1)C(N)=O [Example 141, N^2-{[3,5-dichloro-4-(2-chloro-4-nitrophenoxy)phenyl]sulfonyl}argininamide]	−	
Cc1cc(C)c(N(S(=O)(=O)c2cc(Cl)c(Oc3ccc([N+](=O)[O-])cc3Cl)c(Cl)c2)S(=O)(=O)c2cc(Cl)c(Oc3ccc([N+](=O)[O-])cc3Cl)c(Cl)c2)c(C)c1 [Example 142, 3,5-dichloro-4-(2-chloro-4-nitrophenoxy)-N-mesityl-N-(1,3-dichloro-2-(2-chloro-4-nitrophenoxy)-5-sulfonylbenzene)benzene-sulfonamide]	+	
Cc1c(Cl)cccc1N(S(=O)(=O)c1cc(Cl)c(Oc2ccc([N+](=O)[O-])cc2Cl)c(Cl)c1)S(=O)(=O)c1cc(Cl)c(Oc2ccc([N+](=O)[O-])cc2Cl)c(Cl)c1 [Example 143, 3,5-dichloro-N-(3-chloro-2-methylphenyl)-4-(2-chloro-4-nitrophenoxy)-N-(1,3-dichloro-2-(2-chloro-4-nitrophenoxy)-5-sulfonylbenzene)benzenesulfonamide]	+	
Cc1cc(C)c(NS(=O)(=O)c2cc(Cl)c(Oc3ccc([N+](=O)[O-])cc3Cl)c(Cl)c2)c(C)c1 [Example 144, 3,5-dichloro-4-(2-chloro-4-nitrophenoxy)-N-mesitylbenzenesulfonamide]	+	
O=C(NCC1CC1)c1ccc(NS(=O)(=O)c2cc(Cl)c(Oc3ccc([N+](=O)[O-])cc3Cl)c(Cl)c2)cc1 [Example 152, N-(cyclopropylmethyl)-4-({[3,5-dichloro-4-(2-chloro-4-nitrophenoxy)phenyl]sulfonyl}amino)benzamide]	+	
COc1ccc(NS(=O)(=O)c2cc(Cl)c(Oc3ccc([N+](=O)[O-])cc3Cl)c(Cl)c2)c(OC)c1OC [Example 157, 3,5-dichloro-4-(2-chloro-4-nitrophenoxy)-N-(2,3,4-trimethoxyphenyl)benzenesulfonamide]	+	
O=[N+]([O-])c1ccc(Oc2c(Cl)cc(S(=O)(=O)NC(=S)Nc3cccnc3)cc2Cl)c(Cl)c1 [Example 158, 3,5-dichloro-4-(2-chloro-4-nitrophenoxy)-N-[(pyridin-3-ylamino)carbonothioyl] benzenesulfonamide]	−	
Cc1cccc(NS(=O)(=O)c2cc(Cl)c(Oc3ccc([N+](=O)[O-])cc3Cl)c(Cl)c2)c1 [Example 161, 3,5-dichloro-4-(2-chloro-4-nitrophenoxy)-N-(3-methylphenyl)benzenesulfonamide]	+	
O=[N+]([O-])c1ccc(Oc2c(Cl)cc(S(=O)(=O)Nc3ccc4c(c3)OCO4)cc2Cl)c(Cl)c1 [Example 162, N-1,3-benzodioxol-5-yl-3,5-dichloro-4-(2-chloro-4-nitrophenoxy)benzenesulfonamide]	+	
COc1cccc(NS(=O)(=O)c2cc(Cl)c(Oc3ccc([N+](=O)[O-])cc3Cl)c(Cl)c2)c1 [Example 163, 3,5-dichloro-4-(2-chloro-4-nitrophenoxy)-N-(3-methoxyphenyl)benzenesulfonamide]	+	
N#Cc1cccc(NS(=O)(=O)c2cc(Cl)c(Oc3ccc([N+](=O)[O-])cc3Cl)c(Cl)c2)c1 [Example 169, 3,5-dichloro-4-(2-chloro-4-nitrophenoxy)-N-(3-cyanophenyl)benzenesulfonamide]	+	
O=[N+]([O-])c1ccc(Oc2c(Cl)cc(S(=O)(=O)Nc3ccc(Cl)cc3)cc2Cl)c(Cl)c1 [Example 176, 3,5-dichloro-4-(2-chloro-4-nitrophenoxy)-N-(4-chlorophenyl)benzenesulfonamide]	−	
O=[N+]([O-])c1ccc(Oc2c(Cl)cc(S(=O)(=O)Nc3cc(F)cc(F)c3)cc2Cl)c(Cl)c1 [Example 177, 3,5-dichloro-4-(2-chloro-4-nitrophenoxy)-N-(3,5-difluorophenyl)benzenesulfonamide]	+	
O=[N+]([O-])c1ccc(Oc2c(Cl)cc(S(=O)(=O)Nc3cccc(Cl)c3Cl)cc2Cl)c(Cl)c1 [Example 178, 3,5-dichloro-4-(2-chloro-4-nitrophenoxy)-N-(2,3-dichlorophenyl)benzenesulfonamide]	+	
N#Cc1c(Cl)cccc1Oc1ccc(S(=O)(=O)Nc2cccc(Br)c2)cc1 [Example 180, N-(3-bromophenyl)-4-(3-chloro-2-cyano-phenoxy)benzenesulfonamide]	−	
Cc1c(Cl)cccc1NS(=O)(=O)c1ccc(Oc2cccc(Cl)c2C#N)cc1 [Example 181, 4-(3-chloro-2-cyanophenoxy)-N-(3-chloro-2-methylphenyl)benzenesulfonamide]	−	
N#Cc1c(Cl)cccc1Oc1ccc(S(=O)(=O)Nc2ccc(F)c(Cl)c2)cc1 [Example 182, 4-(3-chloro-2-cyanophenoxy)-N-(3-chloro-4-fluorophenyl)benzenesulfonamide]	−	
O=[N+]([O-])c1cccc(Cl)c1Oc1ccc(S(=O)(=O)Nc2cccc(Br)c2)cc1 [Example 183, N-(3-bromophenyl)-4-(2-chloro-6-nitro-phenoxy)benzenesulfonamide]	−	
Cc1c(Cl)cccc1NS(=O)(=O)c1ccc(Oc2c(Cl)cccc2[N+](=O)[O-])cc1 [Example 184, N-(3-chloro-2-methylphenyl)-4-(2-chloro-6-nitrophenoxy)benzenesulfonamide]	−	
O=[N+]([O-])c1cccc(Cl)c1Oc1ccc(S(=O)(=O)Nc2ccc(F)c(Cl)c2)cc1 [Example 185, N-(3-chloro-4-fluorophenyl)-4-(2-chloro-6-nitrophenoxy)benzenesulfonamide]	−	
CC(=O)c1cccc(NS(=O)(=O)c2cc(Cl)c(Oc3ccc([N+](=O)[O-])cc3Cl)c(Cl)c2)c1 [Example 186, N-(3-acetylphenyl)-3,5-dichloro-4-(2-chloro-4-nitrophenoxy)benzenesulfonamide]		− (2 pt)
O=S(=O)(Nc1cccc(Br)c1)c1ccc(Oc2ccc(F)cc2)cc1 [Example 187, N-(3-bromophenyl)-4-(4-fluorophenoxy) benzenesulfonamide]		− (2 pt)
Cc1c(Cl)cccc1NS(=O)(=O)c1ccc(Oc2ccc(F)cc2)cc1 [Example 188, N-(3-chloro-2-methylphenyl)-4-(4-fluoro-phenoxy)benzenesulfonamide]		− (2 pt)
O=S(=O)(Nc1ccc(F)c(Cl)c1)c1ccc(Oc2ccc(F)cc2)cc1 [Example 189, N-(3-chloro-4-fluorophenyl)-4-(4-fluoro-phenoxy)benzenesulfonamide]		− (2 pt)
